From patent US20220331303A1, “USE OF AN OREXIN 2 RECEPTOR AGONIST FOR THE TREATMENT OF EXCESSIVE SLEEPINESS” (Takeda Pharmaceutical Company Limited, priority 2019, published 2022)
Entries after “also recorded” stand apart in the source; their conditions may differ. Like-named read-outs stand apart in the source and are kept apart here.

Test: Plasma PK of Compound A after a single 9-hour IV infusion in sleep-deprived healthy male subjects
Format: in vivo, human
Conditions: for concentration at 3 h: 3 h post infusion end
Protocol: This was a phase 1b, single-center, randomized, double-blind, double-dummy, placebo- and active-controlled, 4-period Williams design crossover study to evaluate the PK, PD, and safety of Compound A in sleep-deprived healthy volunteers. Compound A was administered as a 9-hour IV infusion.
Healthy adult male subjects aged 18 to 40 years, inclusive, who satisfied the inclusion and exclusion criteria were enrolled in the trial. On Day 1 of treatment period 1, eligible subjects were equally randomized to 4 treatment sequence groups (sequence 1 to 4) which defined the order of administration for Compound A LD, Compound A HD (both delivered as a 9-hour IV infusion), modafinil 300 mg, and placebo.
During the day before dosing on Day 1, participants were administered the KSS at scheduled timepoints. A practice MWT session was performed on Day 1 treatment period 1 (only once during the entire study) to familiarize subjects with the procedures. Study drug was administered in the clinic in the evening on Day 1 of each treatment period. Subjects underwent the MWT and KSS at specified timepoints after the start of the infusion. Subjects were required to stay awake between the MWT tests. Following completion of the IV infusion on Day 2, subjects underwent an additional MWT test. When the final MWT test and cognitive testing were completed, subjects were allowed to sleep (recovery sleep) for approximately 6 hours. PSG recording was collected during this time. Subjects were discharged from the unit after completion on Day 2 with continuing actigraphy upon discharge (to begin on Day −6 before the next treatment period). The interval between each subsequent treatment period was at least 7 days to ensure that the subject's circadian rhythm had returned to a normal cycle. Subject's vital signs, including BP, were monitored during the dosing and testing period. Blood samples for determination of Compound A plasma concentrations were collected at specified timepoints on Days 1 and 2 of each treatment period. Subjects completed the Columbia-Suicide Severity Rating Scale (C-SSRS) during screening, before study drug administration, and before discharge on Day 2 of each treatment period.
Plasma concentrations were tabulated, and descriptive statistics were calculated for each Compound A dose level and are listed in Tables 3-6 for Compound A. The mean plasma concentration versus time plots for Compound A are shown in FIG. 1.

[1] = 2.55-fold increase in dose (44 to 112 mg)

## COC(=O)N1CCC[C@H](NS(C)(=O)=O)[C@@H]1CO[C@H]1CC[C@@H](c2ccccc2)CC1 [Compound A, methyl (2R,3S)-3-((methylsulfonyl)amino)-2-(((cis-4-phenylcyclohexyl)oxy)methyl)piperidine-1-carboxylate]
[1]
  Fold increase in AUClast: 2.45 fold
  Fold increase in AUC∞: 2.46 fold
  Fold increase in Ceoi: 2.45 fold
  Fold increase in Cmax: 2.52 fold
Between 44 and 112 mg dose levels
  Dose proportionality of systemic exposure: approximately dose-proportionately; also recorded: approximately dose proportionately
By 4 hours after start of infusion, 44 mg and 112 mg
  Mean plasma concentration as share of the observed maximum concentration: more than 80%
male, human, plasma, iv, 44 mg, 44 mg 9-h IV infusion, 1 h post infusion start, read-out: Plasma concentration (GM)
  concentration at 1 h: 63.1 ng/mL
male, human, plasma, iv, 44 mg, 44 mg 9-h IV infusion, 1 h post infusion start, read-out: Plasma concentration (Mean)
  concentration at 1 h: 64.4 ng/mL
male, human, plasma, iv, 44 mg, 44 mg 9-h IV infusion, 1 h post infusion start, read-out: Plasma concentration (Median)
  concentration at 1 h: 65.5 ng/mL
male, human, plasma, iv, 44 mg, 44 mg 9-h IV infusion, 2 h post infusion start, read-out: Plasma concentration (GM)
  concentration at 2 h: 72.9 ng/mL
male, human, plasma, iv, 44 mg, 44 mg 9-h IV infusion, 2 h post infusion start, read-out: Plasma concentration (Mean)
  concentration at 2 h: 74 ng/mL
male, human, plasma, iv, 44 mg, 44 mg 9-h IV infusion, 2 h post infusion start, read-out: Plasma concentration (Median)
  concentration at 2 h: 72.6 ng/mL
male, human, plasma, iv, 44 mg, 44 mg 9-h IV infusion, 4 h post infusion start, read-out: Plasma concentration (GM)
  concentration at 4 h: 88.3 ng/mL
male, human, plasma, iv, 44 mg, 44 mg 9-h IV infusion, 4 h post infusion start, read-out: Plasma concentration (Mean)
  concentration at 4 h: 89.3 ng/mL
male, human, plasma, iv, 44 mg, 44 mg 9-h IV infusion, 4 h post infusion start, read-out: Plasma concentration (Median)
  concentration at 4 h: 88.2 ng/mL
male, human, plasma, iv, 44 mg, 44 mg 9-h IV infusion, 6 h post infusion start, read-out: Plasma concentration (GM)
  concentration at 6 h: 97.8 ng/mL
male, human, plasma, iv, 44 mg, 44 mg 9-h IV infusion, 6 h post infusion start, read-out: Plasma concentration (Mean)
  concentration at 6 h: 98.7 ng/mL
male, human, plasma, iv, 44 mg, 44 mg 9-h IV infusion, 6 h post infusion start, read-out: Plasma concentration (Median)
  concentration at 6 h: 97.4 ng/mL
male, human, plasma, iv, 44 mg, 44 mg 9-h IV infusion, 9 h post infusion start, read-out: Plasma concentration (GM)
  concentration at 9 h: 102 ng/mL
male, human, plasma, iv, 44 mg, 44 mg 9-h IV infusion, 9 h post infusion start, read-out: Plasma concentration (Mean)
  concentration at 9 h: 103 ng/mL
male, human, plasma, iv, 44 mg, 44 mg 9-h IV infusion, 9 h post infusion start, read-out: Plasma concentration (Median)
  concentration at 9 h: 101 ng/mL
male, human, plasma, iv, 44 mg, 44 mg [LD] single 9-hour IV infusion, read-out: AUClast (GM)
  AUC(0-t): 933 ng·h/mL
male, human, plasma, iv, 44 mg, 44 mg [LD] single 9-hour IV infusion, read-out: AUClast (Mean)
  AUC(0-t): 940 ng·h/mL
male, human, plasma, iv, 44 mg, 44 mg [LD] single 9-hour IV infusion, read-out: AUClast (Median)
  AUC(0-t): 888 ng·h/mL
male, human, plasma, iv, 44 mg, 44 mg [LD] single 9-hour IV infusion, read-out: AUC∞ (GM)
  AUC(0-inf): 955 ng·h/mL
male, human, plasma, iv, 44 mg, 44 mg [LD] single 9-hour IV infusion, read-out: AUC∞ (Mean)
  AUC(0-inf): 964 ng·h/mL
male, human, plasma, iv, 44 mg, 44 mg [LD] single 9-hour IV infusion, read-out: AUC∞ (Median)
  AUC(0-inf): 911 ng·h/mL
male, human, plasma, iv, 44 mg, 44 mg [LD] single 9-hour IV infusion, read-out: CL (Mean) (converted)
  clearance: 773 mL/min
male, human, plasma, iv, 44 mg, 44 mg [LD] single 9-hour IV infusion, read-out: CL (Median) (converted)
  clearance: 805 mL/min
male, human, plasma, iv, 44 mg, 44 mg [LD] single 9-hour IV infusion, read-out: Cmax (GM)
  Cmax: 106 ng/mL
male, human, plasma, iv, 44 mg, 44 mg [LD] single 9-hour IV infusion, read-out: Cmax (Mean)
  Cmax: 106 ng/mL
male, human, plasma, iv, 44 mg, 44 mg [LD] single 9-hour IV infusion, read-out: Cmax (Median)
  Cmax: 102 ng/mL
male, human, plasma, iv, 44 mg, 44 mg [LD] single 9-hour IV infusion, read-out: Vss (Mean)
  Vd: 107 L
male, human, plasma, iv, 44 mg, 44 mg [LD] single 9-hour IV infusion, read-out: Vss (Median)
  Vd: 99.2 L
male, human, plasma, iv, 44 mg, 44 mg [LD] single 9-hour IV infusion, read-out: Vz (Mean)
  Vd: 207 L
male, human, plasma, iv, 44 mg, 44 mg [LD] single 9-hour IV infusion, read-out: Vz (Median)
  Vd: 211 L
male, human, plasma, iv, 44 mg, 44 mg [LD] single 9-hour IV infusion, read-out: tmax (Mean)
  Tmax: 8.15 h
male, human, plasma, iv, 44 mg, 44 mg [LD] single 9-hour IV infusion, read-out: tmax (Median)
  Tmax: 9 h
male, human, plasma, iv, 112 mg, 112 mg 9-h IV infusion, 0.17 h post infusion end, read-out: Plasma concentration (GM)
  concentration at 0.17 h: 194 ng/mL
male, human, plasma, iv, 112 mg, 112 mg 9-h IV infusion, 0.5 h post infusion end, read-out: Plasma concentration (GM)
  concentration at 0.5 h: 122 ng/mL
male, human, plasma, iv, 112 mg, 112 mg 9-h IV infusion, 1 h post infusion end, read-out: Plasma concentration (GM)
  concentration at 1 h: 97.5 ng/mL
male, human, plasma, iv, 112 mg, 112 mg 9-h IV infusion, 2 h post infusion end, read-out: Plasma concentration (GM)
  concentration at 2 h: 56.7 ng/mL
male, human, plasma, iv, 112 mg, 112 mg 9-h IV infusion, read-out: Plasma concentration (GM)
  concentration at 3 h: 50.8 ng/mL
male, human, plasma, iv, 112 mg, 112 mg 9-h IV infusion, read-out: Plasma concentration (Median)
  concentration at 3 h: 54 ng/mL
male, human, plasma, iv, 112 mg, 112 mg 9-h IV infusion, 4 h post infusion end, read-out: Plasma concentration (GM)
  concentration at 4 h: 40.4 ng/mL
male, human, plasma, iv, 112 mg, 112 mg 9-h IV infusion, 4 h post infusion end, read-out: Plasma concentration (Median)
  concentration at 4 h: 44.7 ng/mL
male, human, plasma, iv, 112 mg, 112 mg 9-h IV infusion, 6 h post infusion end, read-out: Plasma concentration (GM)
  concentration at 6 h: 23.6 ng/mL
male, human, plasma, iv, 112 mg, 112 mg 9-h IV infusion, 6 h post infusion end, read-out: Plasma concentration (Median)
  concentration at 6 h: 23.4 ng/mL
male, human, plasma, iv, 112 mg, 112 mg 9-h IV infusion, 9 h post infusion end, read-out: Plasma concentration (GM)
  concentration at 9 h: 13 ng/mL
male, human, plasma, iv, 112 mg, 112 mg 9-h IV infusion, 9 h post infusion end, read-out: Plasma concentration (Median)
  concentration at 9 h: 11.9 ng/mL
male, human, plasma, iv, 112 mg, 112 mg [HD] single 9-hour IV infusion, read-out: AUClast (GM)
  AUC(0-t): 2300 ng·h/mL
male, human, plasma, iv, 112 mg, 112 mg [HD] single 9-hour IV infusion, read-out: AUClast (Mean)
  AUC(0-t): 2300 ng·h/mL
male, human, plasma, iv, 112 mg, 112 mg [HD] single 9-hour IV infusion, read-out: AUClast (Median)
  AUC(0-t): 2300 ng·h/mL
male, human, plasma, iv, 112 mg, 112 mg [HD] single 9-hour IV infusion, read-out: AUC∞ (GM)
  AUC(0-inf): 2360 ng·h/mL
male, human, plasma, iv, 112 mg, 112 mg [HD] single 9-hour IV infusion, read-out: AUC∞ (Mean)
  AUC(0-inf): 2370 ng·h/mL
male, human, plasma, iv, 112 mg, 112 mg [HD] single 9-hour IV infusion, read-out: AUC∞ (Median)
  AUC(0-inf): 2380 ng·h/mL
male, human, plasma, iv, 112 mg, 112 mg [HD] single 9-hour IV infusion, read-out: CL (Mean) (converted)
  clearance: 793 mL/min
male, human, plasma, iv, 112 mg, 112 mg [HD] single 9-hour IV infusion, read-out: CL (Median) (converted)
  clearance: 785 mL/min
male, human, plasma, iv, 112 mg, 112 mg [HD] single 9-hour IV infusion, read-out: Cmax (GM)
  Cmax: 266 ng/mL
male, human, plasma, iv, 112 mg, 112 mg [HD] single 9-hour IV infusion, read-out: Cmax (Mean)
  Cmax: 268 ng/mL
male, human, plasma, iv, 112 mg, 112 mg [HD] single 9-hour IV infusion, read-out: Cmax (Median)
  Cmax: 260 ng/mL
male, human, plasma, iv, 112 mg, 112 mg [HD] single 9-hour IV infusion, read-out: Vss (Mean)
  Vd: 112 L
male, human, plasma, iv, 112 mg, 112 mg [HD] single 9-hour IV infusion, read-out: Vss (Median)
  Vd: 112 L
male, human, plasma, iv, 112 mg, 112 mg [HD] single 9-hour IV infusion, read-out: Vz (Mean)
  Vd: 223 L
male, human, plasma, iv, 112 mg, 112 mg [HD] single 9-hour IV infusion, read-out: Vz (Median)
  Vd: 216 L
male, human, plasma, iv, 112 mg, 112 mg [HD] single 9-hour IV infusion, read-out: tmax (Mean)
  Tmax: 7.88 h
male, human, plasma, iv, 112 mg, 112 mg [HD] single 9-hour IV infusion, read-out: tmax (Median)
  Tmax: 9 h
male, human, plasma, after end of 9-h IV infusion, biphasic decline, read-out: Mean terminal half-life (t1/2z) (converted)
  half-life: ~3 h
